Bridge positions count the residues as written; N and C are the ends. Square brackets hold non-standard residues; d marks the D form. Ends that are not written are not given here. Peptide text beside a SMILES is read from it. dPhe(3,4-F2) = N[C@H](Cc1ccc(F)c(F)c1)C(=O)O; Nle = CCCC[C@H](N)C(=O)O; Orn = NCCC[C@H](N)C(=O)O; Dab = NCC[C@H](N)C(=O)O; Dap = NC[C@H](N)C(=O)O
Legend:
MC1r = assay: Functional selectivity evaluation at Cerep, MC1r; format: cell-based
hMC1r [1] = biological target: T1, hMC1r (Homo sapiens, UniProt Q01726); assay: Competitive inhibition binding assay using [I125]-NDP-α-MSH, hMC1r membranes; details: human recombinant MC1r, HEK-293 membranes, read-out: MC-1 Ki (average)
Method: (§1) A competitive inhibition binding assay was performed using membrane homogenates prepared from HEK-293 cells that express recombinant hMC1r or hMC4r (in each instance where the h prefix refers to human), or alternatively membrane homogenates from B16-F10 mouse melanoma cells containing endogenous murine MC1r. In the examples that follow, all MC1r and MC4r values are for human recombinant receptors, unless otherwise noted. Assays were performed in 96 well polypropylene round-bottom plates (VWR catalog number 12777-030). […] After incubation for 90 minutes at 37° C., the assay mixture was filtered onto GF/B Unifilter plates (Perkin-Elmer catalog number 6005177) and washed with 3 mL of ice-cold buffer per well. Filters were air dried and 35 μL of scintillation cocktail added to each well. Plates were counted in a Microbeta counter for bound radioactivity. […] Each assay was conducted in duplicate and the actual mean values are described, with results less than 0% reported as 0%. Ki values for peptides of the present invention were determined using Graph-Pad Prism® curve-fitting software.
(§2) All results are expressed in nM except for Emax values, which are percentage values. Peptides with the captioned primary sequence were synthesized and purified as described in Section 7 above, with the resulting peptide having the structure depicted.

[2] = Human clinical microdose study of C14-labeled oral formulation; format: in vivo; details: single oral microdose of C14-labeled Example 9.3 formulated as for Lot 41
Text: A combination of Eudragit® L100-55, Eudragit® S-100 and Eudragit® FS30D polymethacrylates were selected and utilized at a weight ratio of 23.25:23.0:12.5, where the weight of L100-55 and S-100 was dry weight of solid material, and the weight of FS30D was of a commercially prepared aqueous formulation wherein the 12.5 grams of liquid FS30D contained 3.75 grams polymer, for a weight ratio of polymer of 23.25:23:3.75. The combination of polymethacrylates were placed in acetone and stirred for an extended period. […] The dried material was retrieved, diluted with additional dried polymetacrylate mixture not containing peptide to obtain the desired target concentration in a predetermined quantity of material, and milled to the desired diameter and sieved. The sieved material was placed within a gelatin size 2 capsule to provide an oral formulation.
The oral formulation was administered in a microdose level to 24 subjects, divided into six cohorts of 4 subjects each.
The only radioactive material identified in urine was the C14 labelled phenylalanine.

MC4r = MC4r (Homo sapiens, UniProt P32245); assay: Competitive inhibition binding assay using [I125]-NDP-α-MSH, hMC4r membranes; parameters: expressed in transfected cells; host or cells: HEK-293; details: human recombinant MC4r, HEK-293 membranes, read-out: MC-4 Ki (average)
Method: as §1, §2

hMC1r [3] = biological target: T1, hMC1r; assay: Assay for agonist activity: cAMP accumulation in HBL melanoma cells; format: cell-based; parameters: endogenous in cells; host or cells: HBL human melanoma cells; details: for Emax: HBL, compared to NDP-α-MSH as 100%, read-out: MC-1 Emax (average; cAMP HBL); for EC50: read-out: MC-1 EC50 (average; cAMP HBL)
Method: 8.2 Assay for Agonist Activity.
Confluent HBL cells that express hMC1r or HEK-293 cells that express recombinant hMC4r were detached from culture plates by incubation in enzyme-free cell dissociation buffer. Dispersed cells were suspended in Earle's Balanced Salt Solution containing 10 mM HEPES (pH 7.5), 1 mM MgCl2, 1 mM glutamine, 0.5% albumin and 0.3 mM 3-isobutyl-1-methyl-xanthine (IBMX), a phosphodiesterase inhibitor. The cells were plated in 96-well plates at a density of 0.4×10^5 cells per well for HBL cells and 0.5×10^5 cells per well for HEK-293 cells and pre-incubated for 10 minutes. Cells were exposed for 15 minutes at 37° C. to peptides of the present invention dissolved in DMSO (final DMSO concentration of 1%) at a concentration range of 0.05-5000 nM in a total assay volume of 200 μL. […] Data analysis was performed by nonlinear regression analysis with Graph-Pad Prism® software.
as §2

MC4r, sequence (P32245 whole entry): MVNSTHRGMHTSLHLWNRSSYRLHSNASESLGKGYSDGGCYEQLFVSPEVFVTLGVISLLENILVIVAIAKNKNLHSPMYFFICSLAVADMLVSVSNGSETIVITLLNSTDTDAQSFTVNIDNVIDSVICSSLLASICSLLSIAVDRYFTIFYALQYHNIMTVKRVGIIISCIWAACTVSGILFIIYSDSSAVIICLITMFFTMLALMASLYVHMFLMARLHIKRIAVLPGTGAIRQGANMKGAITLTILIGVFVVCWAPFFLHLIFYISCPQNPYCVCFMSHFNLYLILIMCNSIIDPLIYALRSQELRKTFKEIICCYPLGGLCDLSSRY
T1 sequence (Q01726 whole entry): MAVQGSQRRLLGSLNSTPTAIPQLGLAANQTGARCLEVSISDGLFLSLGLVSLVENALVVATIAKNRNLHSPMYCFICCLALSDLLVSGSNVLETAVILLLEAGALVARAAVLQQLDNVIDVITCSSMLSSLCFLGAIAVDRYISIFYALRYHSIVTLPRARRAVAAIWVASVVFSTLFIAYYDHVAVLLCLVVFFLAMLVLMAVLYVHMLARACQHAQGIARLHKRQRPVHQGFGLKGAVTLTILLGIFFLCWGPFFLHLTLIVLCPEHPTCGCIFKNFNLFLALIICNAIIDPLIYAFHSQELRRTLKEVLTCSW

Row | Molecule | Emax (hMC1r [3]) | also measured
1 | SYSMEHFRWGKPVGKKRRPVKVYPNGAEDESAEAFPLEF [ACTH, reference compound] | – | EC50 (MC1r): 980 nM
2 | CCCC[C@H](NC(C)=O)C(=O)N[C@H]1CCC(=O)NC[C@@H](C(=O)N[C@@H](Cc2c[nH]c3ccccc23)C(C)=O)NC(=O)[C@H](CCCNC(=N)N)NC(=O)[C@@H](Cc2ccccc2)NC(=O)[C@H](Cc2c[nH]cn2)NC1=O [Example 9.26, Ac-Nle-cyclo(Glu-His-D-Phe-Arg-Dap)-Trp-OH] | 81% | Ki (hMC1r [1]): 1 nM; intact peptide in plasma or urine [2]: no intact peptide; peptide levels in fecal samples [2]: significant and approximately equal levels; Ki (MC4r): 4700 nM; EC50 (hMC1r [3]): 0.107 nM
3 | CCCC[C@H](NC(C)=O)C(=O)N[C@H]1CCC(=O)NCCC(C(=O)N[C@@H](Cc2c[nH]c3ccccc23)C(N)=O)NC(=O)[C@H](C)NC(=O)[C@@H](Cc2ccccc2)NC(=O)[C@H](Cc2c[nH]cn2)NC1=O (stereo partly drawn) [Example 9.35, Ac-Nle-cyclo(Glu-His-D-Phe-Ala-Dab)-Trp-NH2] | 72% | Ki (hMC1r [1]): 0.8 nM; EC50 (hMC1r [3]): 0.115 nM
4 | CCCCC(NC(C)=O)C(=O)N[C@H]1CCC(=O)NCC[C@@H](C(N)=O)NC(=O)[C@H](CCCNC(=N)N)NC(=O)[C@@H](Cc2ccccc2)NC(=O)[C@H](Cc2c[nH]cn2)NC1=O (stereo partly drawn) [Example 9.44, Ac-Nle-cyclo(Glu-His-D-Phe-Arg-Dab)-NH2] | 85% | Ki (hMC1r [1]): 7 nM; EC50 (hMC1r [3]): 0.32 nM
5 | CCCCC(NC(C)=O)C(=O)N[C@H]1CCC(=O)NCC[C@@H](C(N)=O)NC(=O)[C@H](C)NC(=O)[C@@H](Cc2ccccc2)NC(=O)[C@H](Cc2c[nH]cn2)NC1=O (stereo partly drawn) [Example 9.45, Ac-Nle-cyclo(Glu-His-D-Phe-Ala-Dab)-NH2] | 73% | Ki (hMC1r [1]): 645 nM; EC50 (hMC1r [3]): 44 nM
6 | CCCC[C@H](NC(C)=O)C(=O)N[C@H]1CCC(=O)NCC[C@@H](C(=O)N[C@@H](Cc2c[nH]c3ccccc23)C(N)=O)NC(=O)[C@H](CCCNC(=N)N)NC(=O)[C@@H](Cc2ccccc2)NC(=O)[C@H](CCN)NC1=O [Example 9.41, Ac-Nle-cyclo(Glu-Dab-D-Phe-Arg-Dab)-Trp-NH2] | 108% | –
7 | CCCC[C@H](NC(C)=O)C(=O)N[C@H]1CNC(=O)CCC(=O)NCC[C@@H](C(=O)N[C@@H](Cc2c[nH]c3ccccc23)C(N)=O)NC(=O)[C@H](CCCNC(=N)N)NC(=O)[C@@H](Cc2ccccc2)NC(=O)[C@H](Cc2c[nH]cn2)NC1=O [Example 9.43, Ac-Nle-cyclo(Dap-His-D-Phe-Arg-Dab)-Trp-NH2] | 85% | Ki (hMC1r [1]): 0.065 nM; Ki (MC4r): 860 nM; EC50 (hMC1r [3]): 0.016 nM
8 | CCCC[C@H](NC(C)=O)C(=O)N[C@H]1CCC(=O)NCCC[C@@H](C(=O)N[C@@H](Cc2c[nH]c3ccccc23)C(N)=O)NC(=O)[C@H](CCCNC(=N)N)NC(=O)[C@@H](Cc2ccccc2)NC(=O)[C@H](Cc2c[nH]cn2)NC1=O [Example 9.6, Ac-Nle-cyclo(Glu-His-D-Phe-Arg-Orn)-Trp-NH2] | 91% | –
9 | CCCC[C@H](NC(C)=O)C(=O)N[C@H]1CCC(=O)NCC[C@@H](C(=O)N[C@@H](Cc2c[nH]c3ccccc23)C(N)=O)NC(=O)[C@H](CCCNC(=N)N)NC(=O)[C@H](Cc2ccccc2)NC(=O)[C@H](Cc2c[nH]cn2)NC1=O [Example 9.8, Ac-Nle-cyclo(Glu-His-Phe-Arg-Dab)-Trp-NH2] | 88% | –
10 | CCCC[C@H](NC(C)=O)C(=O)N[C@H]1CCC(=O)NCC[C@@H](C(=O)N[C@@H](CCCCN)C(N)=O)NC(=O)[C@H](CCCNC(=N)N)NC(=O)[C@@H](Cc2ccccc2)NC(=O)[C@H](Cc2c[nH]cn2)NC1=O [Example 9.39, Ac-Nle-cyclo(Glu-His-D-Phe-Arg-Dab)-Lys-NH2] | 91% | –
11 | CCCC[C@H](NC(C)=O)C(=O)N[C@H]1CCC(=O)NCCCC[C@@H](C(=O)N[C@@H](Cc2c[nH]c3ccccc23)C(N)=O)NC(=O)[C@H](CCCNC(=N)N)NC(=O)[C@@H](Cc2ccccc2)NC(=O)[C@H](Cc2c[nH]cn2)NC1=O [Example 9.1, Ac-Nle-cyclo(Glu-His-D-Phe-Arg-Lys)-Trp-NH2] | 97% | –
12 | CCCC(=O)N[C@H]1CCC(=O)NCC[C@@H](C(=O)N[C@@H](Cc2c[nH]c3ccccc23)C(N)=O)NC(=O)[C@H](CCCNC(=N)N)NC(=O)[C@@H](Cc2ccccc2)NC(=O)[C@H](Cc2c[nH]cn2)NC1=O [Example 9.15, CH3—(CH2)2—C(═O)-cyclo(Glu-His-D-Phe-Arg-Dab)-Trp-NH2] | 91% | –
13 | CCCC[C@H](NC(C)=O)C(=O)N[C@H]1CCC(=O)NCC[C@@H](C(N)=O)NC(=O)[C@H](CCCNC(=N)N)NC(=O)[C@@H](Cc2ccccc2)NC(=O)[C@H](CCCN)NC1=O [Example 9.56, Ac-Nle-cyclo(Glu-Orn-D-Phe-Arg-Dab)-NH2] (Ac-[Nle]E[Orn][dF]R[Dab]-NH2; lactam 2-6) | 102% | –
14 | CCCCCC(=O)N[C@H]1CCC(=O)NCC[C@@H](C(=O)N[C@@H](Cc2c[nH]c3ccccc23)C(N)=O)NC(=O)[C@H](CCCNC(=N)N)NC(=O)[C@@H](Cc2ccccc2)NC(=O)[C@H](Cc2c[nH]cn2)NC1=O [Example 9.17, CH3—(CH2)4—C(═O)-cyclo(Glu-His-D-Phe-Arg-Dab)-Trp-NH2] | 90% | –
15 | CCCC[C@H](NC(C)=O)C(=O)N[C@H]1CCC(=O)NCC[C@@H](C(=O)N[C@@H](Cc2c[nH]c3ccccc23)C(N)=O)NC(=O)[C@H](CCCNC(=N)N)NC(=O)[C@@H](Cc2ccccc2)NC(=O)[C@H]2CCCN2C1=O [Example 9.66, Ac-Nle-cyclo(Glu-Pro-D-Phe-Arg-Dab)-Trp-NH2] | 97% | –
16 | CCCC[C@H](NC(C)=O)C(=O)N[C@H]1CCC(=O)NCC[C@@H](C(=O)N[C@@H](Cc2c[nH]c3ccccc23)C(N)=O)NC(=O)[C@H](C)NC(=O)[C@@H](Cc2ccccc2)NC(=O)[C@H](Cc2c[nH]cn2)NC1=O [Example 9.48, Ac-Nle-cyclo(Glu-His-D-Phe-Ala-Dab)-Trp-NH2] | 72% | –
17 | CCCC[C@H](NC(C)=O)C(=O)N[C@H]1CCC(=O)NCC[C@@H](C(N)=O)NC(=O)[C@H](C)NC(=O)[C@@H](Cc2ccccc2)NC(=O)[C@H](Cc2c[nH]cn2)NC1=O [Example 9.33, Ac-Nle-cyclo(Glu-His-D-Phe-Ala-Dab)-NH2] | 73% | –
18 | CCCC[C@H](NC(C)=O)C(=O)N[C@H]1CC(=O)NC[C@@H](C(=O)N[C@@H](Cc2c[nH]c3ccccc23)C(N)=O)NC(=O)[C@H](CCCNC(=N)N)NC(=O)[C@@H](Cc2ccccc2)NC(=O)[C@H](Cc2c[nH]cn2)NC1=O [Example 9.4, Ac-Nle-cyclo(Asp-His-D-Phe-Arg-Dap)-Trp-NH2] (Ac-[Nle]DH[dF]R[Dap]W-NH2; lactam 2-6) | 88% | –
19 | CCCCC(NC(C)=O)C(=O)N[C@H]1CCC(=O)NCC[C@@H](C(=O)N[C@@H](CCCCN)C(N)=O)NC(=O)[C@H](CCCNC(=N)N)NC(=O)[C@@H](Cc2ccccc2)NC(=O)[C@H](Cc2c[nH]cn2)NC1=O (stereo partly drawn) [Example 9.52, Ac-Nle-cyclo(Glu-His-D-Phe-Arg-Dab)-Lys-NH2] | 91% | Ki (hMC1r [1]): 2 nM; Ki (MC4r): 7370 nM; EC50 (hMC1r [3]): 0.175 nM
20 | CCCC[C@H](NC(C)=O)C(=O)N[C@H]1CCC(=O)NCC[C@@H](C(N)=O)NC(=O)[C@H](CCCNC(=N)N)NC(=O)[C@@H](Cc2ccc(F)c(F)c2)NC(=O)[C@H](CCCN)NC1=O [Example 9.62, Ac-Nle-cyclo(Glu-Orn-D-Phe(3,4-F)-Arg-Dab)-NH2] (Ac-[Nle]E[Orn][dPhe(3,4-F2)]R[Dab]-NH2; lactam 2-6) | 97% | –
21 | CCCC[C@H](NC(C)=O)C(=O)N[C@H]1CCC(=O)NCC[C@@H](C(=O)N[C@@H](Cc2cccc3ccccc23)C(N)=O)NC(=O)[C@H](CCCNC(=N)N)NC(=O)[C@@H](Cc2ccccc2)NC(=O)[C@H](Cc2c[nH]cn2)NC1=O [Example 9.30, Ac-Nle-cyclo(Glu-His-D-Phe-Arg-Dab)-Nal 1-NH2] | 72% | –

From patent US20220088146A1, “Melanocortin Receptor-Specific Peptide Formulations and Methods for Gastrointestinal Tract-Specific Delivery” (Palatin Technologies, Inc., priority 2018, published 2022)
